According to ChEMBL document CHEMBL1681658, “Design, synthesis and SAR of a series of 1,3,5-trisubstituted benzenes as thrombin inhibitors” (Bioorg Med Chem Lett, 2011):

Assays:
Plasma = test: Anticoagulant activity in human plasma assessed as concentration required to double activated partial thromboplastin time; type: functional
Prothrombin = Prothrombin (Homo sapiens, UniProt P00734); test: Inhibition of thrombin
[1] = Inhibition of trypsin

| SMILES | Ki (Prothrombin) [nM] | Ki [1] [nM] | 2aPTT (Plasma) [µM] |
| --- | --- | --- | --- |
| Cc1cc(OCC(F)(F)c2cc(C)ccn2)cc(C(=O)N(CC(C)C)CC(C)C)c1 | 37 | > 100000 | – |
| Cc1cc(OCCc2ccccc2CN)cc(C(=O)N(CC(C)C)CC(C)C)c1 | 2.9 | 29000 | 3.6 |
| COc1ccc(Cl)cc1CCOc1cc(C)cc(C(=O)N(CC(C)C)CC(C)C)c1 | 34 | > 100000 | – |
| Cc1cc(OCCc2cc(Cl)ccc2-n2cncn2)cc(C(=O)N(CC(C)C)CC(C)C)c1 | 0.93 | 28000 | 7.1 |
| COC(=O)COc1ccc(Cl)cc1CCOc1cc(C)cc(C(=O)N(CC(C)C)CC(C)C)c1 | 0.73 | > 100000 | >8.2 |
| Cc1cc(OCCc2cc(Cl)ccc2OCC(=O)NC2CCCNC2)cc(C(=O)N(CC(C)C)CC(C)C)c1 (stereo unspecified) | 1.6 | 78000 | >8.2 |
| Cc1cc(C(=O)NCc2cc(Cl)ccc2CN)cc(C(=O)N(CC(C)C)CC(C)C)c1 | 0.68 | 111000 | 1.6 |
| Cc1cc(C(=O)NCc2ccccc2-n2cnnn2)cc(C(=O)N(CC(C)C)CC(C)C)c1 | 50 | > 100000 | – |
| CC(=O)c1ccncc1-c1cc(C)cc(C(=O)NCc2cc(Cl)ccc2-n2cnnn2)c1 | 85 | > 100000 | – |
| Cc1cc(C(=O)NCc2cc(Cl)ccc2-n2cnnn2)cc(-c2cnccc2C(C)C)c1 | 0.27 | > 100000 | 1.5 |
| Cc1cc(C(=O)NCc2cc(Cl)ccc2-n2cnnn2)cc(-c2c[n+]([O-])ccc2C(C)C)c1 | 0.77 | 483000 | 0.38 |
| Cc1cc(NC2CCCCC2)cc(C(=O)NCc2cc(Cl)ccc2-n2cnnn2)c1 | 9.6 | > 100000 | >8.2 |
| Cc1cc(C(=O)NCc2cc(Cl)ccc2-n2cnnn2)cc(N(C2CCCCC2)S(C)(=O)=O)c1 | 0.93 | > 100000 | 0.87 |
| Cc1cc(C(=O)NCc2cc(Cl)ccc2-n2cnnn2)cc(N(C2CCCC2)S(C)(=O)=O)c1 | 1.25 | > 100000 | 0.75 |

Further lines, with some results ahead:

| Ki (Prothrombin) [nM] | Ki [1] [nM] | SMILES | 2aPTT (Plasma) [µM] |
| --- | --- | --- | --- |
| 3.5 | 2600 | Cc1cc(OCCc2nc[nH]c2C)cc(C(=O)N(CC(C)C)CC(C)C)c1 | 4.1 |
| 1.7 | 37000 | Cc1cc(OCCc2ccccc2-n2cnnn2)cc(C(=O)N(CC(C)C)CC(C)C)c1 | 4.4 |
| 7 | > 100000 | Cc1cc(C(=O)NCc2cc(Cl)ccc2-n2cncn2)cc(C(=O)N(CC(C)C)CC(C)C)c1 | 5.3 |
| 0.27 | 29000 | Cc1cc(C(=O)NCc2cc(Cl)ccc2-n2cnnn2)cc(C(=O)N(CC(C)C)CC(C)C)c1 | 1.2 |
| 67 | 302000 | Cc1cc(C(=O)NCc2cc(Cl)ccc2-n2cnnn2)cc(-c2cnccc2N(C)C)c1 | – |
| 1.8 | 278000 | Cc1cc(C(=O)NCc2cc(Cl)ccc2-n2cnnn2)cc(C2CNCCC2CC(C)C)c1 (stereo unspecified) | 1.42 |
| 4.1 | > 100000 | CC(=O)N(c1cc(C)cc(C(=O)NCc2cc(Cl)ccc2-n2cnnn2)c1)C1CCCCC1 | 1.67 |
| 1.6 | 75000 | Cc1cc(C(=O)NCc2cc(Cl)ccc2-n2cnnn2)cc(N(CCN)C2CCCCC2)c1 | 1.48 |
